Measured values: PubChem BioAssay (NCI)
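96-well plates; 48 h exposure; 5 concentrations. Endpoints by linear interpolation between flanking doses. Not reached: highest tested concentration assigned. The concentration for 50% growth inhibition is given as GI50. At the TGI there is no net growth.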

How the values were obtained:
Assay in all cases: growth of human tumour cells (NCI), 48 h
[1] = system: A498 renal
[2] = system: SNB-75 CNS
[3] = system: DMS 273 small cell lung
[4] = system: DLD-1 colon
[5] = system: SR leukemia
[6] = system: SK-MEL-28 melanoma
[7] = system: HCC-2998 colon
[8] = system: DMS 114 small cell lung
[9] = system: LXFL 529 NSCLC
[10] = system: SNB-78 CNS
[11] = system: KM20L2 colon
[12] = system: XF 498 CNS
[13] = system: BT-549 breast
[14] = system: T-47D breast
[15] = system: M19-MEL melanoma
[16] = system: HOP-18 NSCLC

| Compound | TGI [1] | TGI [2] | TGI [3] | TGI [4] | TGI [5] | TGI [6] | TGI [7] | TGI [8] | TGI [9] | TGI [10] | TGI [11] | TGI [12] | TGI [13] | TGI [14] | TGI [15] | TGI [16] | GI50 [1] | GI50 [7] |
| --- | --- | --- | --- | --- | --- | --- | --- | --- | --- | --- | --- | --- | --- | --- | --- | --- | --- | --- |
| CCOC(=O)C(NC(=O)c1ccc(N=NN(C)C)cc1)C(C)C (stereo not given) | > 100 µM | > 100 µM | > 100 µM | > 100 µM | > 100 µM | > 100 µM | > 100 µM | > 100 µM | > 100 µM | – | – | – | – | – | – | – | – | – |
| O=C(NN1C(=O)CSC1c1ccc(Cl)c(Cl)c1)c1ccncc1 (stereo not given) | > 100 µM | > 100 µM | > 100 µM | > 100 µM | – | > 100 µM | > 100 µM | > 100 µM | > 100 µM | > 100 µM | > 100 µM | > 100 µM | – | – | – | – | – | – |
| CC(C)(C)c1ccc2c(c1)OCc1n[nH]c(n1)COc1cc(C(C)(C)C)ccc1OCCOCCO2 | 21.3 µM | 19.2 µM | – | – | 13 µM | 9.52 µM | 13.9 µM | – | – | – | – | – | 10.9 µM | 12.4 µM | – | – | – | – |
| CC[P+](C#Cc1ccccc1)(c1ccccc1)c1ccccc1 | 21.2 µM | 5.31 µM | – | – | 5.73 µM | 4.68 µM | 4.46 µM | – | – | – | – | – | 3.43 µM | 6.88 µM | – | – | – | – |
| COC(=O)C(CCSC)NC(=O)CSc1nnc(COc2ccc(Cl)cc2)n1-c1ccccc1 (stereo not given) | 46.7 µM | 33.7 µM | – | – | 42.4 µM | 33.8 µM | 18.2 µM | – | – | – | – | – | 37.4 µM | > 78.7 µM | – | – | – | – |
| COc1cc(CCCOC2OC(COC3OCC(O)C(O)C3O)C(O)C(O)C2O)cc2cc(-c3ccc4c(c3)OCO4)oc12 (stereo not given) | > 27.7 µM | > 175 µM | > 175 µM | > 175 µM | – | > 175 µM | > 98.4 µM | > 175 µM | – | > 175 µM | > 175 µM | > 175 µM | – | – | > 175 µM | – | – | – |
| CCN(C(=O)N[C@H](C(=O)N[C@@H](C)C(=O)OC)C(C)C)c1ccccc1 | > 100 µM | > 100 µM | – | – | > 100 µM | > 100 µM | 33 µM | – | – | – | – | – | > 100 µM | > 100 µM | – | – | – | – |
| O=c1cc(-c2ccccc2F)[nH]c2cc3c(cc12)OCO3 | 2.13 µM | 17.3 µM | > 100 µM | 2.82 µM | > 100 µM | > 100 µM | 0.399 µM | 51.7 µM | 16.5 µM | > 100 µM | – | 91.7 µM | – | > 100 µM | > 100 µM | 61.1 µM | – | – |
| Cc1cc(C)nc(NS(=O)(=O)c2ccc(Nc3c4ccccc4nc4c(C(=O)NCCO)cccc34)cc2)n1 | > 100 µM | 21.6 µM | – | – | 56.1 µM | 41.3 µM | 27.8 µM | – | – | – | – | – | 34 µM | > 100 µM | – | – | – | – |
| COc1cc(/C=C/C(=O)O)ccc1OS(=O)(=O)O | > 100 µM | > 100 µM | – | – | > 100 µM | > 100 µM | > 100 µM | – | – | – | – | – | > 100 µM | > 100 µM | – | – | – | – |
| COc1cc2c(cc1OCCCOc1cc3c(cc1OC)C(=O)N1CCC[C@H]1CN3)N=C[C@@H]1CCCN1C2=O | 0.668 µM | 2.89 µM | – | – | 0.0265 µM | 0.749 µM | 0.468 µM | – | – | – | – | – | 10.3 µM | > 100 µM | – | – | 0.262 µM | 0.172 µM |
| COn1cc(CO)c2ccccc21 | 3.67 µM | > 100 µM | – | – | > 100 µM | > 100 µM | > 100 µM | – | – | – | – | – | > 100 µM | > 100 µM | – | – | – | – |
| O=S1(=O)c2ccccc2NC(=S)N1c1ccccc1 | > 94.5 µM | 48.3 µM | – | – | > 100 µM | > 100 µM | 98.4 µM | – | – | – | – | – | 99.2 µM | > 100 µM | – | – | – | – |
| Cc1ccc(C(=O)c2[nH]c(Nc3cc(C)ccn3)c(C(=S)Nc3ccccc3)c2N)cc1 | > 100 µM | > 100 µM | – | – | > 100 µM | > 100 µM | > 100 µM | – | – | – | – | – | > 100 µM | > 100 µM | – | – | – | – |
| CCC1C(=O)OCc2c1cc1n(c2=O)CCC12OCCO2 (stereo not given) | > 100 µM | > 100 µM | > 100 µM | > 100 µM | > 100 µM | > 100 µM | > 100 µM | > 100 µM | > 100 µM | > 100 µM | > 100 µM | > 100 µM | – | – | > 100 µM | – | – | – |
| Cc1ccc2c(c1)C(=O)/C(=C\c1ccc(Cl)cc1)CCS2(=O)=O | 26.4 µM | 18.4 µM | – | – | 5.55 µM | 13.5 µM | 5.43 µM | – | – | – | – | – | 12.7 µM | 9.4 µM | – | – | – | – |
| CC/C=C\C/C=C\C/C=C\CCCCCCCC(=O)OC(COC(=O)CCCCCCCCCCCCCCCCC)COC1OC(CO)C(O)C(O)C1O (stereo not given) | > 25 µM | > 25 µM | – | – | > 25 µM | > 25 µM | > 25 µM | – | – | – | – | – | > 25 µM | > 25 µM | – | – | – | – |
| CC1(C)[C@@H]2C[C@H]1c1cnc(-c3ccccn3)cc1[C@H]2C(O)[C@@H]1c2cc(-c3ccccn3)ncc2[C@H]2C[C@@H]1C2(C)C (stereo not given in full) | 6.24 µM | 87.3 µM | – | – | 0.354 µM | 29.7 µM | 20.8 µM | – | – | – | – | – | 3.8 µM | 53.1 µM | – | – | – | – |
